Results from patent publication US20100267803A1, “Regulators Of Fat Metabolism As Anti-Cancer Targets” (The Research Foundation of State University Of New York, priority 2008, published 2010).

Experiments:
Format in all cases: cell-based, human
BT474 cells [1] = test: RNAi screen, alamarBlue cell proliferation and viability; conditions: shRNA transfection
Description: (§1) FIG. 1 An RNAi screen targeting genes overexpressed in breast cancer. (a) Three transfection mixes were produced for each shRNA and each was transfected into triplicate wells of BT474 cells. AlamarBlue was used to monitor cell proliferation and viability. […] (b) The genetic and functional linkage of NR1D1 and PBP. Mb refers to map position on chromosome 17. (c) ERBB2-overexpressing (OEX) and ERBB2 non-overexpressing (non-OEX) breast cancer cell lines as well as the (non-OEX) HMEC and HEK 293 cells were transfected and assayed as in (a). […] Genes clustered with ERBB2 are boxed.
Amplification of the ERBB2 oncogene occurs in 10-34% of breast cancer cases and is correlated with aggressive disease and poor clinical outcome^1. […] However, its success has been tempered by response rates of only 30% when used as a single agent therapy in patients with metastatic ERBB2-positive breast cancer^2. A large number of genes co-overexpressed with ERBB2 in this tumour type have been proposed to contribute to the aggressiveness of this cancer^3-5. Applicants have performed an unbiased functional RNAi screen^8-10 to determine if any of these co-overexpressed genes are essential for ERBB2 positive breast cancer cell survival.
RNAi screen, transfections and constructs. The flag-RevErba (flag-NR1D1) overexpression construct was a generous gift of M. Lazar. The LSXN-neu* (ERBB2) overexpression construct was a generous gift of L. Petti. shRNA constructs were expressed from the pSHAG-MAGIC 2 (pSM2) vector and derived from a genome-wide shRNA library^31. ShRNAs targeting the firefly (Photinus pyralis) luciferase gene were used as controls. Transfection efficiency was monitored by co-transfection with a modified MSCV-Puro vector expressing green fluorescent protein (GFP). The alamarBlue (Biosource) assay was performed 96 h post-transfection, since BT474 cells have a population doubling time of ˜100 hours. For mature sequences of the shRNAs that produced the best results on decreasing BT474 viability, Table S1; a complete list is available in the RNAi Codex web page (http://codex.cshl.edu). The shRNAs targeting the luciferase gene were constructed as described in the RNAi Codex web page (http://codex.cshl.edu/scripts/newmain.pl) using a modified pSM2 vector containing the PheS gene (pSM2-PheS) in the cloning site, as a negative selection marker. The empty vector control (pSM2e) was constructed by XhoI and EcoRI (New England Biolabs) digestion of pSM2-PheS, followed by nucleotide filling of protruding ends by Klenow polymerase and blunt-end ligation. Transfections were performed using FuGENE 6 and HD FuGENE (Roche) according to the manufacturer's protocol. High-throughput transfections were performed using an EpMotion 5070 fluidics station (Eppendorf). For quantification of alamarBlue we used a BioTek HT Synergy plate reader. AlamarBlue values from the RNAi screens on other cell types were also calculated as above and subjected to hierarchical cluster analysis using Cluster 2.11 (M. Eisen Lab).

BT474 cells [2] = test: Counts of GFP co-transfected BT474 cells (cell death / viability); conditions: shRNA co-transfected with GFP, counted up to 72 h
Procedure: (§2) Results are shown as percentage of control. (**P=0.03). (c) BT474 cells were transfected with luciferase (control), PBP and NR1D1 shRNAs and co-transfected with GFP. Green cells were counted at intervals and expressed as percentage of control. (Error bars are s.d from 3 individual experiments; *P<0.08, **P<0.03, ***P<0.005). (d) BT474 cells were transfected with luciferase (control), PBP or NR shRNAs for 48 h. Immunofluorescence was performed for cleaved Caspase-3 signal; cell nuclei were stained with Hoechst 33243. (e) Cells from […] were counted for cleaved Caspase-3 signal. (Error bars are s.d from 3 individual experiments; ***P<0.0003). (f) BT474 cells were transfected with luciferase (control) PBP, NR1D1 or PBP and NR1D1 shRNAs together and co-transfected with GFP. Transfected cells were counted at 24 h and 72 h and the 72 h-to-24 h ratio for each shRNA was calculated and expressed as % of the control shRNA (luciferase). (Error bars are s.d from 3 individual experiments; **P=0.01, ***P<0.002). (g) Cells from (f) were counted for cleaved Caspase-3 signal. (Error bars are s.d from 3 individual experiments; ***P<0.0001). (h) ERBB2 mRNA levels of BT474 cells transfected with luciferase (control), PBP or NR1D1 shRNAs for 48 h, analyzed by qRT-PCRs. (Error bars are s.d from 3 individual experiments; ***P=0.0001).
FIG. 4 NR1D1 and PBP coordinate fatty acid metabolism in breast cancer cells. (a) BT474, MDA-MB-361, MCF-7 and HMEC cells were stained with Oil-Red O lipid and hematoxylin nuclear stains. (b) Fat stores were quantified by BODIPY 493/503 lipid probe staining (Error bars are s.d from 3 individual experiments). (c) FASN, ACLY, ACACA and FADS2 mRNA levels of BT474 cells treated with luciferase (control), PBP or NR1D1 shRNAs, or with vehicle and 20 μM of GW9662 for 48 h, analyzed by qRT-PCRs. (Error bars are s.d from 3 experiments; ***P<0.001, **P=0.005) (d) BT474 cells were transfected with FASN, ACLY and ACACA shRNAs and co-transfected with GFP. Transfected cells were counted at 24 h and 72 h and the 72h-to-24 h ratio for each shRNA was calculated and expressed as % of the control shRNA (luciferase). (Error bars are s.d from 3 individual experiments; **P<0.01, ***P<0.002). (e) BODIPY images and (f) quantification of BT474 cells transfected with luciferase (control), PBP or NR1D1 shRNAs and co-transfected with DsRed (Error bars are s.d from 3 individual experiments; ***P<0.03). Arrows indicate transfected cells.
FIG. 5. (a) MDH1 and ME1 mRNA levels of BT474 cells treated with luciferase (control), PBP or NR1D1 shRNAs for 48 h, analyzed by qRT-PCRs. (Error bars are s.d from 3 experiments; **P<0.002 (b) BT474 and MCF-7 cells were transfected with luciferase (control) MDH1 and ME1 shRNAs (Error bars are s.d from 3 individual experiments; ***P=0.0003). (c) BT474 cells) assayed for cleaved Caspase-3 signal by immunofluorescence 48 h after transfection; cell nuclei were stained with Hoechst 33243. (d) Quantification of cleaved Caspase-3 signal from cells in (c). (Error bars are s.d from 3 individual experiments; ***P<0.005). (e) Enzymes involved in fatty acid synthesis and storage that are regulated by NR1D1 and PBP and their proposed contribution to energy production necessary for survival of ERBB2-positive breast cancer cells.
(§3) Cell viability—apoptosis assays. […] At least 30 fields were imaged per single experiment. […] Immunoblotting. […] PCR reaction was run using standard conditions.

[3] = tested on: BT474, MDA-MB-361, MCF-7 and HMEC cells; test: Cell counts after PPARγ antagonist treatment; conditions: 10 and 20 μM for 72 hrs; % of vehicle
Procedure: FIG. 3 PPAR. inhibition impacts NR1D1 expression and ERBB2-positive cells viability. (a) Cell counts of BT474, MDA-MB-361, MCF-7 and HMEC cells treated with vehicle, 10 and 20 μM of the PPAR. antagonist GW9662 for 72 hrs. Results represented as % of control (vehicle). (Error bars are s.d from 3 individual experiments; *P>0.2, **P<0.05, ***P<0.002). (b) BT474 cells treated with vehicle or 20 μM of GW9662 for 48 h were immuno-stained for cleaved Caspase-3. (c) Quantification of Caspase-3 signal. (Error bars are s.d from 3 individual experiments; ***P=0.002). (d) aP2 and NR1D1 mRNA levels of BT474 cells treated with vehicle (control) and 20 μM of GW9662 for 48 h, analyzed by qRT-PCRs. (Error bars are s.d from 3 experiments; ***P<0.0006. (e) BMAL1-luc activity of BT474 cells treated with vehicle or 20 μM of GW9662 for 48 h. (Error bars are s.d from 3 individual experiments; **P=0.03). (f) Total ERBB2 western blot of BT474 cells treated with vehicle or 20 μM GW9662 for 72h. GAPDH was used as control.
as §3

[4] = tested on: ERBB2 overexpressing (BT474, MDA-MB-361) breast cancer cell lines; test: alamarBlue proliferation of shRNA-transfected ERBB2-overexpressing cell lines; conditions: shRNA transfection
Description: as §1
(§4) To assess the specificity of effect of each shRNA on cell proliferation, those causing the greatest decrease in BT474 cell proliferation were transfected in a variety of cell lines, including ERBB2 overexpressing (BT474, MDA-MB-361) and nonoverexpressing breast cancer cell lines (MCF-7, MDA-MB-453, MDA-MB-468), normal human mammary epithelial cells (HMECs) and a non-breast tumorigenic cell line (HEK 293FT). […] PBP, NRID1 and PFN2 shRNAs clustered with ERBB2.
(§5) RNAi screen, transfections and constructs. The flag-RevErba (flag-NR1D1) overexpression construct was a generous gift of M. Lazar. The LSXN-neu* (ERBB2) overexpression construct was a generous gift of L. Petti. shRNA constructs were expressed from the pSHAG-MAGIC 2 (pSM2) vector and derived from a genome-wide shRNA library^31. ShRNAs targeting the firefly (Photinus pyralis) luciferase gene were used as controls. Transfection efficiency was monitored by co-transfection with a modified MSCV-Puro vector expressing green fluorescent protein (GFP). The alamarBlue (Biosource) assay was performed 96 h post-transfection, since BT474 cells have a population doubling time of ˜100 hours. […] For quantification of alamarBlue we used a BioTek HT Synergy plate reader. AlamarBlue values from the RNAi screens on other cell types were also calculated as above and subjected to hierarchical cluster analysis using Cluster 2.11 (M. Eisen Lab).

[5] = tested on: nonoverexpressing breast cancer cell lines (MCF-7, MDA-MB-453, MDA-MB-468), HMECs, HEK 293FT; test: alamarBlue proliferation of shRNA-transfected ERBB2 non-overexpressing cell lines; conditions: MCF-7, MDA-MB-453, MDA-MB-468, HMEC, shRNA transfection
Description: as §1, §4, §5

BT474 cells [6] = test: Apoptosis by cleaved Caspase-3 or activated Bax immunofluorescence; conditions: 48 h of shRNA or 20 μM GW9662
Procedure: as §2
FIG. 3 PPAR. inhibition impacts NR1D1 expression and ERBB2-positive cells viability. (a) Cell counts of BT474, MDA-MB-361, MCF-7 and HMEC cells treated with vehicle, 10 and 20 μM of the PPAR. antagonist GW9662 for 72 hrs. Results represented as % of control (vehicle). (Error bars are s.d from 3 individual experiments; *P>0.2, **P<0.05, ***P<0.002). […] (c) Quantification of Caspase-3 signal. […] (d) aP2 and NR1D1 mRNA levels of BT474 cells treated with vehicle (control) and 20 μM of GW9662 for 48 h, analyzed by qRT-PCRs. […]
FIG. 5. (a) MDH1 and ME1 mRNA levels of BT474 cells treated with luciferase (control), PBP or NR1D1 shRNAs for 48 h, analyzed by qRT-PCRs. […] (d) Quantification of cleaved Caspase-3 signal from cells in (c). […]

| Molecule | effect on cell proliferation (BT474 cells [1]) | cell death / viability (cell number of transfected cells) (BT474 cells [2]) | also measured |
| --- | --- | --- | --- |
| FADS2 shRNA: shRNA, mature sequence CCCATAGGGAGCTGATCGT (shRNA) | moderate effect on cell proliferation | – | – |
| CA9 shRNA: shRNA, mature sequence CTTTGAATGGGCGAGTGAT (shRNA) | significant effects on proliferation | – | – |
| MAP2K6 shRNA: shRNA, mature sequence CAGATGACCTGGAGCCTAT (shRNA) | most dramatic effect on cell proliferation | – | – |
| ACLY shRNA: shRNA, mature sequence GGGAGGAAGCTGATGAATA (shRNA) | – | significantly decreased BT474 cell viability | – |
| TPD52 shRNA: shRNA, mature sequence CTGTGAGATTCCTACCTTT (shRNA) | significant effects on proliferation | – | – |
| FASN shRNA: shRNA, mature sequence CTGGCCCAGGCTGAAGTTT (shRNA) | moderate effect on cell proliferation | significantly decreased BT474 cell viability | – |
| MKI67 shRNA: shRNA, mature sequence GCTACAAACTCCTAAGGAA (shRNA) | significant effects on proliferation | – | – |
| O=C(Nc1ccncc1)c1cc([N+](=O)[O-])ccc1Cl [second PPARγ antagonist] | – | – | sensitivity of cells to drug treatment (cell counts) [3]: produced the same effects |
| PFN2 shRNA: shRNA, mature sequence AGCATTACGCCAATAGAAA (shRNA) | – | – | viability of ERBB2-positive cells [4]: specifically decreased the viability of ERBB2-positive cells; effect on other cell lines or HMECs [5]: without effect on other cell lines or HMECs |
| ACACA shRNA: shRNA, mature sequence CACATGACCTTAAGATTAT (shRNA) | – | significantly decreased BT474 cell viability | – |
| ME1 shRNA: shRNA, mature sequence GGCTTTATCCTCCTTTGAA (shRNA) | – | cell death | apoptosis (BT474 cells [6]): apoptosis |
| MDH1 shRNA: shRNA, mature sequence CGAGCTAAAGCTCAAATTG (shRNA) | – | cell death | apoptosis (BT474 cells [6]): apoptosis |
